Source: patent publication US20230270731A1, “THERAPEUTIC COMPOUNDS AND COMPOSITIONS” (eXIthera Pharmaceuticals, Inc., priority 2019, published 2023)
Converted amounts (≈) assume the structure as drawn. Like-named read-outs stand apart in the source and are kept apart here.

Columns and labels:
[1] = Equilibrium solubility of Compound 1 in common buffers; type: physicochemical; details: thermodynamic from solid, read-out: Avg. c(Compound 1, FB), equilibrium solubility
Method: The equilibrium solubility of Compound 1 was tested in common buffers (Table 2) at a buffer strength of c(buffer)=200 mM. For this, samples of Compound 1 with c(Compound 1, target)=16 mg/mL were prepared in the different buffer solutions (Table 3), mixed by vortexing and inspected for solid residues. For the cases for which no solid residues were observed the solutions were arbitrarily supplemented with additional solid Compound 1. This process was repeated (hourly observation) until a solid residue remained readily observable. The samples were rotated at room temperature for 24 h.
The equilibrium solubility samples were cleared by centrifugation (table top centrifuge, rcf=16,100×g, 10 min). The supernatant was subjected to HPLC analysis and assayed in triplicates for Compound 1 concentration using the HPLC method described in Example 2. The pH of the supernatant was measured (Table 3).

[2] = pH-dependent stability and pH-rate profile, 10-day, 4° C. and 40° C.; type: physicochemical; details: for stability in buffered aqueous solutions: pH=2-8, 0.1 mg/mL, 100 mM buffer, in the dark, 10 days
Method: The stability Compound 1 was assessed over a 10-day period at several pH-values pH=2, 3, 4, 5, 6, 7, 8) and at two different temperatures (4° C., 40° C.). Samples of Compound 1 at c(Compound 1)=0.1 mg/mL were prepared in standard buffers (Table 2) at a buffer strength of c(buffer)=100 mM and incubated at either T=4° C. or T=40° C. (exclusion from light during incubation and analysis). The concentration of Compound 1 was assessed in such samples via HPLC analysis at an initial time point (to) and on days 1, 2, 3, 4, 7 and 10 (Δt=day×24 h). The pH was monitored at identical time points during the 10-day period.
Over the 10-day period for both temperatures the pH of the sample solutions (FIG. 2A & FIG. 2B) was monitored and the recovery (R %) of Compound 1 (FIG. 3A & FIG. 3B) was calculated via:
whereas c(Compound 1, theor.)=0.1 mg/mL and c(Compound 1, actual) is determined by HPLC analysis via integration of the Compound 1 parent peak areas.

[3] = Reconstitution and reconstitution stability of the lyophilized Compound 1 drug product; type: physicochemical; details: reconstituted drug product
Method: The lyophilized Compound 1 drug product was subjected to testing of reconstitution and to stability testing for 6 h after reconstituted with DI water VDIwater=5 mL.
The lyophilization cake readily reconstituted within 10-20 s. The solution during reconstitution appeared quite foamy and contained many bubbles, which cleared within approximately 2 min addition of the reconstitution solution. Residual micro-bubbles on the container wall can be removed by vortexing (2 s) or sonication (2 s). […] The pH of the reconstituted solution was measured with pH=6.81; the osmolality was determined to φ=295 mOsm/kg. The reconstituted solution was practically free of particulates as determined by liquid particle counting (LPC, HIAC: Vsample=5 mL, nruns=4, 1st run discarded, fdilution=10, Vnominal, container=2 mL) with a cumulative count of 3200 particles at a size of 10 μm and 667 particles at a size of 25 μm.
The recovery of Compound 1 was monitored for 24 h after reconstitution to test for the in-use stability of the reconstituted solution (Table 9)

[4] = Compatibility with sterilization filters; type: physicochemical
Method: The feasibility of aseptic processing was evaluated and three different filter materials were tested for compatibility with the reconstituted Compound 1 formulation.
Filter compatibility of the reconstituted Compound 1 drug product was tested with different filter material (Table 17) composed of polyethersulfone (PES), nylon, and polyvinylidene fluoride (PVDF). For this a volume of Vfilter pass=10 mL was passed through the respective filter and the first as well as the last 10 vol % of the filtered volume were assayed for recovery of Compound 1 (Table 12).
The average values of % recovery are relative to the reconstituted drug product that has not been in contact with the tested materials.

[5] = test system: blood coagulation components (Cardiopulmonary Bypass circuit); type: in vivo
Method: The following parameters and endpoints were evaluated in this study: mortality, body weight, physical, clinical pathology parameters (hematology and coagulation), coagulation time, and bioanalytical parameters.
The vehicle and test article were administered via intravenous (IV) infusion once on Day 1 for 135 minutes (initiated 30 minutes prior to starting the Cardiopulmonary Bypass (CPB) and continuing for 105 minutes of CPB). Group 2 animals received a […] IV bolus dose immediately prior to the start of IV infusion. Group 3, 4, and 5 animals received a 10 mg/kg IV bolus dose prior to the start of the IV infusion; with the CPB machine primed with test article at 10 μg/mL.
Infusion of the Compound 1 was started 30 minutes prior to the animal being placed on the CPB pump. The CPB pump was primed with 0.9% saline.
Venous and arterial sheaths were flushed with the Compound 1 at a concentration of 10 μg/mL. An IV bolus dose of the test article was administered immediately prior to the start of the infusion. Infusion of Compound 1 was started 30 minutes prior to the animal being placed on the CPB pump. The CPB […] was primed with 10 μg/mL of the Compound 1 prior to initiation of the CPB pump.
An IV bolus dose of the Compound 1 was administered immediately prior to the start of the infusion. Infusion of Compound 1 was started 30 minutes prior to the animal being placed on the CPB pump.

[6] = Compatibility with infusion bags; type: physicochemical; details: infus. bag1, t0 (Table 15)

## C[C@@H](NC(=O)N1C(=O)[C@H](Cc2ccnc(N)c2)[C@H]1C(=O)O)C1CCCCC1 [Compound 1, (2S,3R)-3-[(2-aminopyridin-4-yl)methyl]-1-{[(1R)-1-cyclohexylethyl]carbamoyl}-4-oxoazetidine-2-carboxylic acid]
[1]; citrate buffer, pH 2.72, aqueous buffer, citric acid/sodium 200 mM, pH (Buffer) 3.00, pH (Meas.) 2.72, room temperature 24 h
  solubility thermodynamic at 24 h: 5960 µg/mL (≈ 15.9 mM)
[1]; citrate buffer, pH 3.74, aqueous buffer, citric acid/sodium 200 mM, pH (Buffer) 4.00, pH (Meas.) 3.74, room temperature 24 h
  solubility thermodynamic at 24 h: 6200 µg/mL (≈ 16.6 mM)
[1]; pH 1.29, aqueous buffer, phosphoric acid/sodium phosphate 200 mM, pH (Buffer) 2.00, pH (Meas.) 1.29, room temperature 24 h
  solubility thermodynamic at 24 h: 159000 µg/mL (≈ 424 mM)
[1]; pH 4.57, aqueous buffer, acetic acid/sodium acetate 200 mM, pH (Buffer) 5.00, pH (Meas.) 4.57, room temperature 24 h
  solubility thermodynamic at 24 h: 7480 µg/mL (≈ 20 mM)
[1]; pH 6.33, aqueous buffer, sodium phosphate 200 mM, pH (Buffer) 7.00, pH (Meas.) 6.33, room temperature 24 h
  solubility thermodynamic at 24 h: 12000 µg/mL (≈ 32 mM)
[1]; pH 6.67, aqueous buffer, sodium phosphate 200 mM, pH (Buffer) 8.00, pH (Meas.) 6.67, room temperature 24 h
  solubility thermodynamic at 24 h: 15300 µg/mL (≈ 40.9 mM)
[2]; 0.1 mg/mL, pH 2-8, 10 days
  precipitation of the drug compound: no precipitation
[2]; pH 2-8, 10 days
  stability/pH-correlation: more stable towards a low pH and less stable towards a higher pH
[2]; 4° C.
  stability in buffered aqueous solutions: stable
[2]; 40° C.
  stability in buffered aqueous solutions: significant degradation
[3]; t0
  Avg. c(Compound 1, FB, Obs.): 9.65 mg/mL
  pH (Meas.): 6.80
[3]; t = 1 h
  Avg. c(Compound 1, FB, Obs.): 9.47 mg/mL
  pH (Meas.): 6.79
[3]; t = 2 h
  Avg. c(Compound 1, FB, Obs.): 9.20 mg/mL
  pH (Meas.): 6.80
[3]; t = 4 h
  Avg. c(Compound 1, FB, Obs.): 9.19 mg/mL
  pH (Meas.): 6.79
[3]; t = 6 h
  Avg. c(Compound 1, FB, Obs.): 9.28 mg/mL
  pH (Meas.): 6.79
[3]; t = 24 h
  Avg. c(Compound 1, FB, Obs.): 8.99 mg/mL
  pH (Meas.): 6.85
[4]; Nylon filter, first 10% of 10 mL
  Avg. c(Compound 1, FB, Obs.): 0.94 mg/mL
[4]; Nylon filter, last 10% of 10 mL
  Avg. c(Compound 1, FB, Obs.): 0.95 mg/mL
[4]; PES filter, first 10% of 10 mL
  Avg. c(Compound 1, FB, Obs.): 0.94 mg/mL
[4]; PES filter, last 10% of 10 mL
  Avg. c(Compound 1, FB, Obs.): 0.95 mg/mL
[4]; PVDF filter, first 10% of 10 mL
  Avg. c(Compound 1, FB, Obs.): 0.95 mg/mL
[4]; PVDF filter, last 10% of 10 mL
  Avg. c(Compound 1, FB, Obs.): 0.95 mg/mL
[4]; Sample Soln. (pre-filtration)
  Avg. c(Compound 1, FB, Obs.): 0.95 mg/mL
[4]; any of the tested filters
  back-pressure during filtration: No increase
[5]; FIG. 12
  relation between plasma concentration and aPTT: correlation
[5]; all groups, following cessation of infusion and CPB
  aPTT: trended towards baseline values, but remained moderately prolonged
[5]; course during infusion and CPB
  prolongations in aPTT: persisted throughout Compound 1 infusion and CPB
[5]; dog, in vivo
  morbidity or mortality: not associated with any increases in morbidity or mortality
  survival: All animals survived
[5]; during Compound 1 infusion and prior to CPB, all animals
  aPTT: moderately to markedly prolonged
[5]; hound CPB model
  prevention of activation of blood coagulation in components of cardiopulmonary bypass: successful in preventing the activation of blood coagulation
[5]; hound CPB model, coagulation parameters
  selectivity of anticoagulant effects: selective to inhibition of activated partial thromboplastin time (aPTT)
[5]; multiple doses, IV infusion, CPB run
  pressure gradient across the membrane oxygenator: stayed consistent through the entire run
[6]
  Avg. c(Compound 1, FB, Obs.): 0.09 mg/mL
